According to patent US20060276407A1, “Methods of treating hepatitis C virus” (Schering Corporation, priority 2005, published 2006):
Where two headings read alike, the source gives them in different places.

How the values were obtained:
[1] = Phase 1 rising-single-dose pharmacokinetic study in healthy adult subjects (Example 1); assay type: in vivo, human; details: for half-life / AUC / Tmax / Cmax / Vd/F: human; for AUC: po; for DN AUC(l) / DN AUC(tf) / DN Cmax: dose-normalized (to 50 mg)
Method: A Phase 1, randomized, third-party-blind (within dose level), placebo-controlled, rising-single-dose study of compounds of Formulae I-XXVI was conducted in healthy adult subjects.
Nine subjects in each group received either compound of Formula Ia (n=6) or placebo (n=3). Those subjects randomized to active compound received one of the following doses of compound of Formula Ia: 50, 100, 200, 400, 600, or 800 mg.
On Day 1, at least 10 hours prior to compound administration, an overnight fast was maintained until 4 hours following treatment administration, after which lunch was served. During the fasting period, no food or fluid (except noncarbonated water) was permitted; furthermore, drinking water was prohibited from 2 hours predose to 2 hours postdose, with the exception of the approximately 240 mL administered with the treatments.
Blood samples (7 mL each) for the determination of compound of Formula Ia concentrations were collected immediately prior to dosing (0 hour), and at 0.25, 0.5, 0.75, 1, 1.5, 2, 3, 4, 5, 6, 8, 10, 12, 18, 24, 36, 48, 72, and 144 hours postdose. The blood samples were collected into tubes containing EDTA. The samples were separated by centrifugation at 4° C. for 15 minutes at 1500 g to obtain the plasma, and the plasma samples frozen at −20° C. until assayed.
Plasma concentrations of compound of Formula Ia were determined using a validated liquid chromatography tandem mass spectrometry (LC-MS/MS) method. The assay lower limit of quantitation (LLOQ) was 0.50 ng/mL, and the method was validated over the concentration range of 0.50 to 1000 ng/mL.
The mean and percent coefficients of variation (% CV) were calculated for the plasma concentrations of compound of Formula Ia at each time point. Concentration values less than the assay LLOQ were reported as and set to zero in the calculations and tables. The plasma concentration-time data for compound of Formula Ia were subjected to pharmacokinetic analysis by noncompartmental methods using WinNonlin software. Nominal sampling times were used for pharmacokinetic analysis.
For each subject, the following compound of Formula Ia pharmacokinetic parameters were determined: • Cmax Maximum observed plasma concentration • Tmax Time of maximum observed plasma concentration • tf Time of final quantifiable sample • AUC(tf) Area under the plasma concentration-time curve from time 0 to tf • AUC(l) Area under the plasma concentration-time curve from time 0 to infinity [AUC(l)=[…]+C(tf)estimated/k, where k and C(tf)estimated are terminal elimination rate constant and estimated concentration at final quantifiable sample, respectively] • t½ Terminal-phase half-life (t½=ln 2/k) • CL/F Apparent total body clearance (CL/F=Dose/AUC[l]) • Vd/F Apparent volume of distribution (Vd/F=CL/F*(t1/2/0.693))
Dose-adjusted (to 50 mg) Cmax, AUC(l), and AUC(tf) values were also calculated. Cmax, Tmax, and if were the observed values. The terminal phase rate constant (k) was calculated as the negative of the slope of the log-linear terminal portion of the plasma concentration-time curve using linear regression (at least three time points). The number of points needed to determine the terminal phase rate constant was selected by WinNonlin software.
Summary statistics, including means, standard deviations, and coefficients of variation (CV) expressed as a percent, were computed for the single-dose plasma compound of Formula Ia concentration data at each sampling time point and for the derived pharmacokinetic parameters for each dose level using a standard program based on SAS/STAT (Release 6.12; SAS Institute Inc., North Carolina).
The log-transformed dose-adjusted (to 50 mg) Cmax and AUC values of compound of Formula Ia were statistically analyzed using an analysis of variance (ANOVA) model. The effect due to treatment (dose) was extracted. Ninety-five percent confidence intervals (CIs) for the means at each dose level, based on the nontransformed data, were provided. […]

[2] = tested on: bicistronic subgenomic replicon (genotype 1b); assay: Bicistronic subgenomic replicon suppression, 72 hour assay in HuH-7 cells; assay type: cell-based, HCV; details: Hepatitis C virus
Description: NS3-mediated cleavage of the HCV polyprotein releases functional viral proteins essential for viral propagation. Therefore, blockage of NS3 protease activity by compound of Formula Ia is expected to inhibit viral replication in infected host cells.

[3] = plasma, single oral dose 50 mg, mean, n = 6
[4] = plasma, single oral dose 100 mg, mean, n = 6
[5] = plasma, single oral dose 200 mg, mean, n = 6
[6] = plasma, single oral dose 400 mg, mean, n = 6
[7] = plasma, single oral dose 600 mg, mean, n = 6
[8] = plasma, single oral dose 800 mg, mean, n = 6
[9] = single oral dose 50 mg, mean, n = 6
[10] = single oral dose 100 mg, mean, n = 6
[11] = single oral dose 200 mg, mean, n = 6
[12] = single oral dose 400 mg, mean, n = 6
[13] = single oral dose 600 mg, mean, n = 6
[14] = single oral dose 800 mg, mean, n = 6

Compound: CC(C)(C)NC(=O)N[C@H](C(=O)N1C[C@H]2[C@@H]([C@H]1C(=O)NC(CC1CCC1)C(=O)C(N)=O)C2(C)C)C(C)(C)C (mixture of isomers) [Formula Ia, (1 R, 5S)-N-[3-Amino-1-(Cyclobutylmethyl)-2,3-Dioxopropyl]-3-[2(S)-[[[(1,1-Dimethylethyl)Amino]Carbonyl]Amino]-3,3-Dimethyl-1-Oxobutyl]-6,6-Dimethyl-3-Azabicyclo[3.1.0]Hexan-2(S)-Carboxamide]
- half-life ([1]; plasma, oral, 100-800 mg dose cohorts, read-out: mean terminal phase half-life (t½)): 7 to 15 h
- AUC ([1]; plasma, 50 mg, single oral dose 50 mg, mean, n = 6, read-out: AUC(l)): 181 ng·h/mL
- AUC ([1]; plasma, 50 mg, single oral dose 50 mg, mean, n = 6, read-out: AUC(tf)): 179 ng·h/mL
- AUC ([1]; plasma, 100 mg, single oral dose 100 mg, mean, n = 6, read-out: AUC(l)): 345 ng·h/mL
- AUC ([1]; plasma, 100 mg, single oral dose 100 mg, mean, n = 6, read-out: AUC(tf)): 337 ng·h/mL
- AUC ([1]; plasma, 200 mg, single oral dose 200 mg, mean, n = 6, read-out: AUC(l)): 846 ng·h/mL
- AUC ([1]; plasma, 200 mg, single oral dose 200 mg, mean, n = 6, read-out: AUC(tf)): 831 ng·h/mL
- AUC ([1]; plasma, 400 mg, single oral dose 400 mg, mean, n = 6, read-out: AUC(l)): 1560 ng·h/mL
- AUC ([1]; plasma, 400 mg, single oral dose 400 mg, mean, n = 6, read-out: AUC(tf)): 1530 ng·h/mL
- AUC ([1]; plasma, 600 mg, single oral dose 600 mg, mean, n = 6, read-out: AUC(l)): 2160 ng·h/mL
- AUC ([1]; plasma, 600 mg, single oral dose 600 mg, mean, n = 6, read-out: AUC(tf)): 2140 ng·h/mL
- AUC ([1]; plasma, 800 mg, single oral dose 800 mg, mean, n = 6, read-out: AUC(l)): 2320 ng·h/mL
- AUC ([1]; plasma, 800 mg, single oral dose 800 mg, mean, n = 6, read-out: AUC(tf)): 2300 ng·h/mL
- Tmax ([1]; plasma, across single oral doses 50-800 mg, read-out: median Tmax): 1 to 2.25 h
- Cmax [1, 3]: 58.7 ng/mL
- Vd/F [1, 3]: 1070 L
- Tmax ([1]; plasma, single oral dose 50 mg, median, n = 6, read-out: Tmax): 1.5 h
- Cmax [1, 4]: 111 ng/mL
- Vd/F [1, 4]: 2680 L
- half-life ([1]; plasma, single oral dose 100 mg, mean, n = 6, read-out: t½ (converted)): 6.84 h
- Tmax ([1]; plasma, single oral dose 100 mg, median, n = 6, read-out: Tmax): 2 h
- Cmax [1, 5]: 281 ng/mL
- Vd/F [1, 5]: 3840 L
- half-life ([1]; plasma, single oral dose 200 mg, mean, n = 6, read-out: t½ (converted)): 10.8 h
- Tmax ([1]; plasma, single oral dose 200 mg, median, n = 6, read-out: Tmax): 1 h
- Cmax [1, 6]: 445 ng/mL
- Vd/F [1, 6]: 5400 L
- half-life ([1]; plasma, single oral dose 400 mg, mean, n = 6, read-out: t½ (converted)): 15.4 h
- Tmax ([1]; plasma, single oral dose 400 mg, median, n = 6, read-out: Tmax): 1.75 h
- Cmax [1, 7]: 528 ng/mL
- Vd/F [1, 7]: 4110 L
- half-life ([1]; plasma, single oral dose 600 mg, mean, n = 6, read-out: t½ (converted)): 10.2 h
- Tmax ([1]; plasma, single oral dose 600 mg, median, n = 6, read-out: Tmax): 2.25 h
- Cmax [1, 8]: 616 ng/mL
- Vd/F [1, 8]: 5450 L
- half-life ([1]; plasma, single oral dose 800 mg, mean, n = 6, read-out: t½ (converted)): 10.1 h
- Tmax ([1]; plasma, single oral dose 800 mg, median, n = 6, read-out: Tmax): 1.25 h
- half-life ([1]; single oral dose 50 mg, mean, n = 6, value could not be well characterized because of low plasma concentrations in the terminal phase, read-out: t½ (converted)): 2.69 h
- DN AUC(l) ([1]; single oral dose 50 mg, mean): 181 ng·h/mL
- DN AUC(tf) ([1]; single oral dose 50 mg, mean): 179 ng·h/mL
- DN Cmax ([1]; single oral dose 50 mg, mean): 58.7 ng/mL
- CL/F [1, 9]: 277 L/h
- tf (time of final quantifiable sample) [1, 9]: 15.3 h
- DN AUC(l) ([1]; single oral dose 100 mg, mean): 172 ng·h/mL
- DN AUC(tf) ([1]; single oral dose 100 mg, mean): 169 ng·h/mL
- DN Cmax ([1]; single oral dose 100 mg, mean): 55.4 ng/mL
- CL/F [1, 10]: 315 L/h
- tf (time of final quantifiable sample) [1, 10]: 26 h
- DN AUC(l) ([1]; single oral dose 200 mg, mean): 212 ng·h/mL
- DN AUC(tf) ([1]; single oral dose 200 mg, mean): 208 ng·h/mL
- DN Cmax ([1]; single oral dose 200 mg, mean): 70.3 ng/mL
- CL/F [1, 11]: 254 L/h
- tf (time of final quantifiable sample) [1, 11]: 40.0 h
- DN AUC(l) ([1]; single oral dose 400 mg, mean): 195 ng·h/mL
- DN AUC(tf) ([1]; single oral dose 400 mg, mean): 191 ng·h/mL
- DN Cmax ([1]; single oral dose 400 mg, mean): 55.7 ng/mL
- CL/F [1, 12]: 279 L/h
- tf (time of final quantifiable sample) [1, 12]: 52.0 h
- DN AUC(l) ([1]; single oral dose 600 mg, mean): 180 ng·h/mL
- DN AUC(tf) ([1]; single oral dose 600 mg, mean): 178 ng·h/mL
- DN Cmax ([1]; single oral dose 600 mg, mean): 44.0 ng/mL
- CL/F [1, 13]: 288 L/h
- tf (time of final quantifiable sample) [1, 13]: 52 h
- DN AUC(l) ([1]; single oral dose 800 mg, mean): 145 ng·h/mL
- DN AUC(tf) ([1]; single oral dose 800 mg, mean): 144 ng·h/mL
- DN Cmax ([1]; single oral dose 800 mg, mean): 38.5 ng/mL
- CL/F [1, 14]: 399 L/h
- tf (time of final quantifiable sample) [1, 14]: 56 h
- IC50 ([2]; n=25, read-out: IC50 for suppression (4-log reduction) of the replicon (converted)): ~200 nM
- IC90 ([2]; n=25, read-out: IC90 for suppression (4-log reduction) of the replicon (converted)): ~400 nM
